“Also recorded” adds a separate entry of the source. Starred links: 1 amine or outer side, 2 acyl side, 3 side chain; linkers in the order of their positions; H or OH if unused. Positions of bridges follow the written chain, without caps; N, C: chain ends. Non-standard residues stand in square brackets, D forms with d. Residues, ends and D or L forms follow the SMILES beside them. *: point of attachment. X2 = C[C@H](Oc1ccc([C@H](N[*:1])C(=O)[*:2])cc1)[C@@]1(/C=C/C(=O)[*:3])CO1; X1 = CC(C)[C@H](O)[C@H](C)C(=O)*; aIle = CC[C@@H](C)[C@H](N)C(=O)O; dNMeF = CN[C@H](Cc1ccccc1)C(=O)O; aThr = C[C@H](O)[C@H](N)C(=O)O
Assays:
[1] = system: D21f2tolC pRL663 and D21f2tolC pRL706 derivatives; experiment: Broth microdilution resistance levels of induced Sal-resistant mutants (plasmid-borne rpoC / rpoB); format: cell-based, Escherichia coli; conditions: for resistance level (MIC/MICwild-type): induced mutant
Procedure: Isolation of Sal-Resistant Mutants: Induced Sal-Resistant Mutants. E. coli Random mutagenesis of rpoC in plasmid pRL663 and rpoB in plasmid pRL706 was performed as in 24, mutagenenized plasmids were passaged in E. coli XL1-Blue (Stratgene, Inc.) as in 24, mutagenized plasmids were introduced by transformation into E. coli D21f2tolC as in 24, and transformants (˜1×10^4 cells) were applied to LB-agar plates containing 1 μg/ml Sal, 200 μg/ml ampicillin, and 1 mM IPTG, and plates were incubated 16-24 h at 37° C. Sal-resistant mutants were identified by the ability to form colonies on this medium and were confirmed by re-streaking on the same medium.
Quantitation of Resistance to Sal. Resistance to Sal was quantified by performing broth microdilution assays. Single colonies were inoculated into 3 ml LB broth, and incubated 3-6 h at 37° C. with shaking. Diluted aliquots (2×10^4 cells in 98 μl LB broth; concentrations determined using OD600=1 for 10^9 cells) were dispensed into wells of a 96-well plate, were supplemented with 2 μl of a 2-fold dilution series of Sal in methanol (final concentrations of […], 0.390, 0.195, 0.0975, 0.0488, 0.0244, 0.0122, and 0.00609 μg/ml) or 2 μl of a solvent blank, and were incubated 16 h at 37° C. with shaking. The minimum inhibitory concentration (MIC) was defined as the lowest tested concentration of Sal that inhibited bacterial growth by 95%.

[2] = biological target: bacterial RNA polymerase (RNAP) (Escherichia coli, UniProt P0A8T7+P0A8V2); conditions: in vitro; reference 4; read-out: IC50, inhibition of bacterial RNA polymerase in vitro; cited from earlier work
bacterial RNA polymerase (RNAP), sequence (P0A8V2 whole entry): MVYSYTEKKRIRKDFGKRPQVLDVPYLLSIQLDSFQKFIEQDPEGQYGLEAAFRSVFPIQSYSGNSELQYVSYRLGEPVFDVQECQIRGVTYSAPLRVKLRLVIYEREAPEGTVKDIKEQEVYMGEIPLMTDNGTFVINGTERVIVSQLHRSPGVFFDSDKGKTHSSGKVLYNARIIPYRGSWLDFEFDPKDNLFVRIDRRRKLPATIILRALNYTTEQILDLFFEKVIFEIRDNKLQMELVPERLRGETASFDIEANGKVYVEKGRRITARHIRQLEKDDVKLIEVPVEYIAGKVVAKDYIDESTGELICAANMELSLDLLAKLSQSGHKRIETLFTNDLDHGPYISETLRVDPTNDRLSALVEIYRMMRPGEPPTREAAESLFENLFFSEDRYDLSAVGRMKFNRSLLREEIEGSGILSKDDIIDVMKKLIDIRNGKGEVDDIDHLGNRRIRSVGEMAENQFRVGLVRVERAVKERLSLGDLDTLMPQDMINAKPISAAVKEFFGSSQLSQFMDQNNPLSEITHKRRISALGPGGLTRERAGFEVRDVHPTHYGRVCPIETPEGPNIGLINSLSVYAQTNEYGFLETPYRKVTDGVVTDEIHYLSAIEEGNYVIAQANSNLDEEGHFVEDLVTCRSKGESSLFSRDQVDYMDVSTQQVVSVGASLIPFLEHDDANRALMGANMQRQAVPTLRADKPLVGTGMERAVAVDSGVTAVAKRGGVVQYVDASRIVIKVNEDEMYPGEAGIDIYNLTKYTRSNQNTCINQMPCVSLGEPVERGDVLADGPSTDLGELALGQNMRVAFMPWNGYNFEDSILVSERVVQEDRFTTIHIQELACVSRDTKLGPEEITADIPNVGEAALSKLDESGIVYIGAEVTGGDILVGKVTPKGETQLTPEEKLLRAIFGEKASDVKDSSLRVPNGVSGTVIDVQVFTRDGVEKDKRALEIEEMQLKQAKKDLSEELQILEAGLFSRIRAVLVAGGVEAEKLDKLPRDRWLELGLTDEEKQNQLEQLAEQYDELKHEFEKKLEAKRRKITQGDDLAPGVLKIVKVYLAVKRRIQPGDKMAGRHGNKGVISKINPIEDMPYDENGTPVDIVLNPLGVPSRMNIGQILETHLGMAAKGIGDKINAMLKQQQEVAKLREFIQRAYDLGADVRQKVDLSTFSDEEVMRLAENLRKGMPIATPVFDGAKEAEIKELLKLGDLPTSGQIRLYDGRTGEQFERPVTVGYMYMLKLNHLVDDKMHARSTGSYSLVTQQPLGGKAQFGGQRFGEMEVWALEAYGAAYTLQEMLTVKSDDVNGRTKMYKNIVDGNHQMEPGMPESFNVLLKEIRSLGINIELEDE
bacterial RNA polymerase (RNAP), sequence (P0A8T7 whole entry): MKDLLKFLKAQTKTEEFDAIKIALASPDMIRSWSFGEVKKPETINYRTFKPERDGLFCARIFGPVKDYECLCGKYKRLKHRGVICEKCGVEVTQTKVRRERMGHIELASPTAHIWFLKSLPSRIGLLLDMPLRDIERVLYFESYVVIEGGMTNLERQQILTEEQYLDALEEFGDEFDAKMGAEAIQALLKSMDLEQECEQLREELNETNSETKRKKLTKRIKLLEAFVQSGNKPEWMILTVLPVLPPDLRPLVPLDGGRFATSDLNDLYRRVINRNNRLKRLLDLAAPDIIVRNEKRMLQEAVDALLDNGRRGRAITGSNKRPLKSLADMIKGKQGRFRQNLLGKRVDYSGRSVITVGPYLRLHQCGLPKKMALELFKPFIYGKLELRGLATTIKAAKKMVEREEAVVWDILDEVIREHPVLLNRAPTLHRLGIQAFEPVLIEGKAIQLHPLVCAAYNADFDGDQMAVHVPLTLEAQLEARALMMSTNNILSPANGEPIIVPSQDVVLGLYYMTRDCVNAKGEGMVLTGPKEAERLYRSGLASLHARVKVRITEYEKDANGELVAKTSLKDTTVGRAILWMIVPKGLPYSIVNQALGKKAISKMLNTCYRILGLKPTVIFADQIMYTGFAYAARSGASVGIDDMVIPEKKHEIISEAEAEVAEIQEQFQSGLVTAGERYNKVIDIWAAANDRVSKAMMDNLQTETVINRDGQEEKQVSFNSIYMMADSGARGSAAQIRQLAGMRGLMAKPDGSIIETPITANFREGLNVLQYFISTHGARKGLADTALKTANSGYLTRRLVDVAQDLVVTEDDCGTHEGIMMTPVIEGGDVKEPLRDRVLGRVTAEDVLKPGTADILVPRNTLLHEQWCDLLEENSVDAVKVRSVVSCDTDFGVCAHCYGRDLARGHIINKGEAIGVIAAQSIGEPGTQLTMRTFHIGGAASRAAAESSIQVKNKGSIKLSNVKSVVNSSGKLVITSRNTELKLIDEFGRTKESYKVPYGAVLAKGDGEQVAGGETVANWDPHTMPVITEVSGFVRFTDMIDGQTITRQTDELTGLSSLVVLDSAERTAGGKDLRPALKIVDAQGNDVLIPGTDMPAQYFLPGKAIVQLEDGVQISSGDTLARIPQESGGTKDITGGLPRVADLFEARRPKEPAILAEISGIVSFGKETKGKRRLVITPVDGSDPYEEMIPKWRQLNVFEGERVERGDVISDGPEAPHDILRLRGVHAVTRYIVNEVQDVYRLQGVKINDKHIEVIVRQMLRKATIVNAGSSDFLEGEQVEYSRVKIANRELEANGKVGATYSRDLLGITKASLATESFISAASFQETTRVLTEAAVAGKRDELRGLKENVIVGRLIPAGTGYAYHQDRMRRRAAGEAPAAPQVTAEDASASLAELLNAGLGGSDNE
bacterial RNA polymerase (RNAP), sequence (P0A7Z4 whole entry, further chain): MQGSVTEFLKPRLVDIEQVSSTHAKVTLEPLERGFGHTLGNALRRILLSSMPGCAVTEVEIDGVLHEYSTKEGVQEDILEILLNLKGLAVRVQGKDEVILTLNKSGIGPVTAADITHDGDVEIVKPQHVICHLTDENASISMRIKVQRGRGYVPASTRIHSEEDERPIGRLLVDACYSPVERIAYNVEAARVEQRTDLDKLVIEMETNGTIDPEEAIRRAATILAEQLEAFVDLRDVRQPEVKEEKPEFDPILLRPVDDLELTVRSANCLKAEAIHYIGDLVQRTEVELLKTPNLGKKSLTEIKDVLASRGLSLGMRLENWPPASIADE

Streptococcus pneumoniae = conditions: references 1, 2; cited from earlier work
human RNAPs = conditions: human RNAP I, RNAP II, RNAP III; reference 4; cited from earlier work
[3] = system: Derivatives of E. coli D21f2tolC containing rifamycin-resistant rpoB mutations; experiment: Broth microdilution cross-resistance of rifamycin-resistant mutants to Sal; format: cell-based, Escherichia coli

CC[C@@H](C)[C@@H]1NC(=O)[C@H](NC(=O)[C@@H](C)[C@@H](O)C(C)C)[C@H](C)OC(=O)[C@H]2COC(=O)CNC(=O)/C=C/[C@@]3(CO3)[C@H](C)Oc3ccc(cc3)[C@H](NC1=O)C(=O)N(C)[C@H](Cc1ccccc1)C(=O)N[C@@H]([C@H](C)O)C(=O)N2 [Sal, salinamide A] (X1-[dT][aIle][X2][dNMeF][aThr][dS]; ester 1-C; linker 3-6 via G)
MIC with wild-type rpoC and wild-type rpoB ([1]; D21f2tolC pRL663 and D21f2tolC pRL706 derivatives, wild-type plasmid genes): ^aAssayed as D21f2tolC pRL663 and D21f2tolC pRL706 derivatives; MIC with wild-type rpoC and wild-type rpoB was 0.098 μg/ml.
resistance level (MIC/MICwild-type) ([1]; rpoB (RNAP β subunit) 561 Ile→Ser): 2
resistance level (MIC/MICwild-type) ([1]; rpoB (RNAP β subunit) 665 Ala→Glu): 8
resistance level (MIC/MICwild-type) ([1]; rpoB (RNAP β subunit) 680 Leu→Met): 4
resistance level (MIC/MICwild-type) ([1]; rpoC (RNAP β′ subunit) 758 Pro→Thr): 4
resistance level (MIC/MICwild-type) ([1]; rpoC (RNAP β′ subunit) 780 Arg→Cys): 8
resistance level (MIC/MICwild-type) ([1]; rpoC (RNAP β′ subunit) 782 Gly→Cys): 8
IC50 [2]: 500 nM
antibacterial activity (Streptococcus pneumoniae): exhibits antibacterial activity
inhibition of human RNAPs (human RNAPs): does not inhibit
cross-resistance level (MIC/MICwild-type) ([3]; rifampin-resistant mutant rpoB (RNAP β subunit) 516 Asp→Val): 1
cross-resistance level (MIC/MICwild-type) ([3]; rifampin-resistant mutant rpoB (RNAP β subunit) 526 His→Asp): 1
cross-resistance level (MIC/MICwild-type) ([3]; rifampin-resistant mutant rpoB (RNAP β subunit) 526 His→Tyr): 1
cross-resistance level (MIC/MICwild-type) ([3]; rifampin-resistant mutant rpoB (RNAP β subunit) 531 Ser→Leu): 1
cross-resistance of rifamycin-resistant mutants (in words) ([3]; β Asp516→Val, His526→Asp, His526→Tyr, Ser531→Leu mutants (Table 5)): not cross-resistant; also recorded: no cross-resistance

From US9060970B2, “Bridge-helix cap: target and method for inhibition of bacterial RNA polymerase” (priority 2011, dated 2015)
